The record followed here is PubChem BioAssay (NCI).

Common to all, as to assay: DTP human tumour cell line panel, 48 h
Experiment [1] concerns ACHN renal.
The test system of experiment [2] is CCRF-CEM leukemia.
Experiment [3] deals with EKVX NSCLC.
The subject of experiment [4] is HCT-116 colon.
Experiment [5] concerns NCI/ADR-RES ovarian.
Experiment [6] deals with OVCAR-3 ovarian.
The subject of experiment [7] is OVCAR-5 ovarian.
In experiment [8] the test system is PC-3 prostate.
Experiment [9] deals with SNB-19 CNS.
Experiment [10] relates to SNB-75 CNS.
Experiment [11] concerns TK-10 renal.

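Interpolation was linear, between the two tested concentrations surrounding the appropriate level; five concentrations were tested over 48 hours in 96-well plates. At the TGI there is no net growth.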

Usually TGI stands for the concentration giving total growth inhibition. In the case of `O=C(O)C(F)(OC(F)(F)C(F)(OC(F)(F)C(F)(F)C(F)(F)F)C(F)(F)F)C(F)(F)F` (configuration not stated), the TGI in experiment [1], in [2], in experiment [3], in [4], in experiment [5] and in [6] was over 100 µM throughout. The TGI in experiment [7], in [8], in experiment [9], in experiment [10] and in experiment [11] was over 100 µM throughout.
With `CN(C)/C=N/S(=O)(=O)c1nn2c(C=O)c(-c3ccc(-c4ccc([N+](=O)[O-])cc4)o3)nc2s1`, the TGI was 8.99 µM in experiment [1]; 3.98 µM in [2]; 21.1 µM in experiment [3]; 3.68 µM in experiment [4]; over 96.6 µM in experiment [5]; 8.41 µM in experiment [6]. In addition, the TGI in experiment [7] was over 30.5 µM; in [8], 14.3 µM; in experiment [9], 45.5 µM; in experiment [10], 36.6 µM; in experiment [11], 15.1 µM.
With `Cc1cccc(NC(=S)N/N=C(/c2ccccc2)c2ccccn2)c1`, the TGI in experiment [1] came to 11.8 µM; in [2], 1.48 µM; in [3] it was 4.08 µM; in experiment [4], 13 µM; in experiment [5], 6.63 µM; in [6], 11.9 µM. Besides, the TGI was 8.68 µM in experiment [7]; 18.3 µM in experiment [8]; 20 µM in [9]; 22.1 µM in experiment [10]; 16 µM in experiment [11].
As to `O=C(/C(=C/c1cccs1)c1ccccc1)c1ccccc1`, the TGI in experiment [1], in experiment [2], in experiment [3], in experiment [4], in [5] and in experiment [6] was over 100 µM throughout. Further, the TGI in experiment [7], in [8], in [9], in experiment [10] and in experiment [11] was over 100 µM in each case.
On to `O=C1C[C@H]2[C@H](c3ccc(Br)cc3)[C@H]3C(=O)c4ccccc4NC(=O)[C@@H]3[C@@]2(O)c2ccccc2N1`, for which the TGI in experiment [1] is 97.7 µM; in experiment [2], 53.3 µM; in experiment [3], over 100 µM; in experiment [4] it was 33.1 µM; in experiment [5] it was 61.9 µM; in experiment [6], 37 µM. The TGI in [7] is 91.9 µM; in experiment [8], over 100 µM; in experiment [9], over 100 µM; in experiment [10] it was 41.1 µM; in [11], 56.8 µM.
Take `S=C1SC(c2ccc(Cl)cc2)(c2ccc(Cl)cc2)c2ccccc21`: the TGI in experiment [1], in experiment [2], in experiment [3], in [4], in experiment [5] and in experiment [6] was over 100 µM throughout. Moreover, the TGI in experiment [7], in experiment [8], in [9], in experiment [10] and in experiment [11] was over 100 µM in each case.
As for `CCCCCCCC/C=C/CCCCCCCC1CC(O)C(=O)O1` (configuration not stated), the TGI in [1] is over 100 µM; in [2] it was over 100 µM; in experiment [3], over 100 µM; in [4], over 100 µM; in experiment [5] it was over 100 µM; in [6], 95.7 µM. For the same compound, the TGI in [7], in experiment [8], in experiment [9], in experiment [10] and in experiment [11] was over 100 µM throughout.
As for `CC(NC(=O)C(N)CC(=O)O)NC(=O)N1CCCC1` (configuration not stated), the TGI in experiment [1], in experiment [2], in experiment [3], in experiment [4], in experiment [5] and in [6] was over 100 µM in each case. For the same compound, the TGI in experiment [7], in [8], in experiment [9], in experiment [10] and in experiment [11] was over 100 µM in each case.
Take `CCn1cnc2c(NC(C)=O)ncnc21`: the TGI in [1], in experiment [2], in experiment [3], in [4], in experiment [5] and in experiment [6] was over 100 µM in each case. The TGI in experiment [7], in [8], in [9], in [10] and in experiment [11] was over 100 µM each time.
As for `O=C(N/C(=C\c1ccccc1)C1Nc2ccccc2C(=O)O1)c1ccccc1` (configuration not stated), the TGI in experiment [1] was over 100 µM; in [2] it was 46.5 µM; in experiment [3], over 100 µM; in experiment [4], 36.8 µM; in experiment [5], 70.9 µM; in experiment [6] it was 96.7 µM. Also, the TGI in experiment [7], in experiment [8], in experiment [9], in experiment [10] and in [11] was over 100 µM throughout.
Turning to `CC(=O)O[C@H]1[C@@H](N2CCN(C)CC2)C[C@H]2[C@@H]3CC=C4C[C@@H](N5CCCC5)CC[C@]4(C)[C@H]3CC[C@@]21C`, the TGI in experiment [1], in experiment [2], in experiment [3], in experiment [4], in experiment [5] and in experiment [6] was over 100 µM throughout. The total growth inhibition concentration (TGI) in [7], in experiment [8], in [9], in [10] and in experiment [11] was over 100 µM throughout.
With `COc1cc(OC)nc(Nc2c(C#N)c3nc4ccccc4n3c3ccccc23)n1`, the total growth inhibition concentration (TGI) in [1] was 50.1 µM; in experiment [2], over 100 µM; in [3] it was over 100 µM; in experiment [4], over 100 µM; in [5], over 100 µM; in experiment [6], over 100 µM. Besides, the TGI is over 100 µM in experiment [7]; over 100 µM in experiment [8]; 86.2 µM in [9]; 37.6 µM in experiment [10]; 74.2 µM in experiment [11].
